# Experimental data published in patent US10168342B2, “Lipid probes and uses thereof” (THE SCRIPPS RESEARCH INSTITUTE, priority 2015, dated 2019).
# Like-named read-outs stand apart in the source and are kept apart here.
# How the values were obtained:
# [1] = molecular target: T1, AEA-DA lipid probe targets in Neuro2a cells (Mus musculus, UniProt Q99P72)
# T1 sequence (Q99P72 1-1162): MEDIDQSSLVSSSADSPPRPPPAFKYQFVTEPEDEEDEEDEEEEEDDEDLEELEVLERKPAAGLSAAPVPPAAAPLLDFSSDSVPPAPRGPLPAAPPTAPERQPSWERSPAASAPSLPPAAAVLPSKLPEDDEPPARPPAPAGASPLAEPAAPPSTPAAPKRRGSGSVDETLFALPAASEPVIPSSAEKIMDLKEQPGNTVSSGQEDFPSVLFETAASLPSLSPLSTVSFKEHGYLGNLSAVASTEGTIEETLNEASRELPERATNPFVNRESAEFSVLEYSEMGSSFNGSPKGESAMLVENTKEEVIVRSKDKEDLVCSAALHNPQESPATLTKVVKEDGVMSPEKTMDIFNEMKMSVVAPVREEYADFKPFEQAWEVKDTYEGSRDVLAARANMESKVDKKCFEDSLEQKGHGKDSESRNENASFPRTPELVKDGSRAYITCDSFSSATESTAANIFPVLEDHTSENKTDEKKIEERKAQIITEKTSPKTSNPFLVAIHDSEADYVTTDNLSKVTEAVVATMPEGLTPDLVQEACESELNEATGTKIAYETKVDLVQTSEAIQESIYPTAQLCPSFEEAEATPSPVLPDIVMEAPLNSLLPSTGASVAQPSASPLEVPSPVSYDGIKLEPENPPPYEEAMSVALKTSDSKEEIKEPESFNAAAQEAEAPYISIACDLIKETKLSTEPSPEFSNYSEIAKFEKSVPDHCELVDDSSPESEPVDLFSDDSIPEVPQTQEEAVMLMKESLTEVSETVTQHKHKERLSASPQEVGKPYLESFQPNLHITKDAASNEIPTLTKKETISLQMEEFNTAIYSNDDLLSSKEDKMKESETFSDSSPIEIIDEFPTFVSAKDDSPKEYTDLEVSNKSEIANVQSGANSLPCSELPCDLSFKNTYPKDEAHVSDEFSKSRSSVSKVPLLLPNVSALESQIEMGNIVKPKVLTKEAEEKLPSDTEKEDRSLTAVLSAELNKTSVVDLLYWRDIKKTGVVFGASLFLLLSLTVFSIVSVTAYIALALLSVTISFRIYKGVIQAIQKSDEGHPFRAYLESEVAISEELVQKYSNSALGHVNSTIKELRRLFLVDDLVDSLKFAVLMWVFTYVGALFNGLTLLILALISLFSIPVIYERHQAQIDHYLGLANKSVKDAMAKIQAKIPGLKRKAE
# [2] = molecular target: T2, AEA-DA lipid probe targets in Neuro2a cells (Mus musculus, UniProt Q02819)
# T2 sequence (Q02819 26-459): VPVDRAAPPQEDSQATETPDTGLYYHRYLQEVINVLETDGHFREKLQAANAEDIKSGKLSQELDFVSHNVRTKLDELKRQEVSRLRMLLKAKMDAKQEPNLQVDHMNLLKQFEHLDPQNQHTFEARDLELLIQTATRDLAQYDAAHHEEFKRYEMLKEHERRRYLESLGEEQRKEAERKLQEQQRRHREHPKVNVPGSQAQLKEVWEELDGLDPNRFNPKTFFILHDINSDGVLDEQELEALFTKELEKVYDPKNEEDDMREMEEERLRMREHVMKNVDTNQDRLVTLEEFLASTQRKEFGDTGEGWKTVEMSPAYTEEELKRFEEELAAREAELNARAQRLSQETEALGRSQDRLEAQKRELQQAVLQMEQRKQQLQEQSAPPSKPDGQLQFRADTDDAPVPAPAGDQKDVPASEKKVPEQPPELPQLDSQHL
# [3] = molecular target: T3, AEA-DA lipid probe targets in Neuro2a cells (Mus musculus, UniProt Q0VGU4)
# T3 sequence (Q0VGU4 24-617): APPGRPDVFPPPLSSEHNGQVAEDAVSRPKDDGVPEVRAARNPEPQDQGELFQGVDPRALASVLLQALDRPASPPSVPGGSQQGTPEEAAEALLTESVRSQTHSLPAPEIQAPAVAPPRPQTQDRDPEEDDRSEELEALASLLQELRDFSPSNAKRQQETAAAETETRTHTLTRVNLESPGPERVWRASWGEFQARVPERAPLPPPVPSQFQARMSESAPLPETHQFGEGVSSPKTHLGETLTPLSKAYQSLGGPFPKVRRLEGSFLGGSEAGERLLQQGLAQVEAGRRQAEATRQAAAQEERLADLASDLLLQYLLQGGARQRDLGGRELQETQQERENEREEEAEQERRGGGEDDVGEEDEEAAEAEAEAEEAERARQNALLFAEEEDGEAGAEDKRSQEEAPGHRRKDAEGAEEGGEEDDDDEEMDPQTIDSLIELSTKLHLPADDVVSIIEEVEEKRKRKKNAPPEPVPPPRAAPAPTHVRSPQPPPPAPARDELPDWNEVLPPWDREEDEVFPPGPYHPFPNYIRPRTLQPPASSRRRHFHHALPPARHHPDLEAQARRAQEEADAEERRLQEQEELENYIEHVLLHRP
# [4] = molecular target: T4, AEA-DA lipid probe targets in Neuro2a cells (Mus musculus, UniProt Q80W54)
# T4 sequence (Q80W54 1-475): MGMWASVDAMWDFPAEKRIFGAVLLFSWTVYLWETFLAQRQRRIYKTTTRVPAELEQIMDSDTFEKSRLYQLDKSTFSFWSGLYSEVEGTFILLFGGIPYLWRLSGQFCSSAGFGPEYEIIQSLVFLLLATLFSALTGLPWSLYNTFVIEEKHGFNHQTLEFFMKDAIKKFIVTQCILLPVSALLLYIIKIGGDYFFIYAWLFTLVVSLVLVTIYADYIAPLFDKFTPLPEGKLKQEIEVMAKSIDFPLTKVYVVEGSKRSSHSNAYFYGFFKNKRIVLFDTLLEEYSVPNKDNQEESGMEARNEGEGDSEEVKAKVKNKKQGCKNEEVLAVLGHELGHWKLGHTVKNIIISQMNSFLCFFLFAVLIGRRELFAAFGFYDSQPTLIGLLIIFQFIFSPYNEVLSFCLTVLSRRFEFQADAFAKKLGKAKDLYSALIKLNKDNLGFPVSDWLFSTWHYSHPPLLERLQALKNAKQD
smiles,measurement,setting,value
"CCCCC/C=C\C/C=C\C/C=C\C/C=C\CCCC(=O)NCCO [AEA, anandamide, reference compound]","SILAC ratio, Rtn4",[1]; competitor 200 μM,1.8
same,"SILAC ratio, Nucb1",[2]; competitor 200 μM,1.5
same,"SILAC ratio, Vgf",[3]; competitor 200 μM,1.0
same,SILAC ratio Zmpste24,[4]; competitor 200 μM,1.7
"O=C(/C=C/c1cccnc1)NCCCCC1CCN(C(=O)c2ccccc2)CC1 [FK-866, reference compound]","SILAC ratio, Rtn4",[1]; competitor 25 μM,1.1
same,interaction with NUCB1 protein,[2]; FIG. 16I and Table 4,did not interact
same,"SILAC ratio, Nucb1",[2]; competitor 25 μM,1.2
same,"SILAC ratio, Vgf",[3]; competitor 25 μM,1.1
same,SILAC ratio Zmpste24,[4]; competitor 25 μM,1.1
"CN1CCN(C(=O)c2c(-c3ccccc3)c3cc([N+](=O)[O-])ccc3n2C)CC1 [KML110, (1-Methyl-5-nitro-3-phenyl-1H-indol-2-yl)(4-methylpiperazin-1-yl)methanone]","SILAC ratio, Rtn4",[1]; competitor 25 μM,1.4
same,"SILAC ratio, Nucb1",[2]; competitor 25 μM,3.4
same,"SILAC ratio, Vgf",[3]; competitor 25 μM,1.4
same,SILAC ratio Zmpste24,[4]; competitor 25 μM,1.4
"CN1CCN(C(=O)c2[nH]c3ccc([N+](=O)[O-])cc3c2-c2ccccc2)CC1 [MJN228, (4-Methylpiperazin-1-yl)(5-nitro-3-phenyl-1H-indol-2-yl)methanone]","SILAC ratio, Rtn4",[1]; competitor 10 μM,1.0
same,"SILAC ratio, Rtn4",[1]; competitor 25 μM,1.3
same,"SILAC ratio, Rtn4",[1]; competitor 50 μM,1.2
same,"SILAC ratio, Rtn4",[1]; competitor 100 μM,1.4
same,concentration at which lipid probe binding to NUCB1 is inhibited (as low as),"[2]; Neuro2a cells, AEA-DA 5 μM",10 µM
same,concentration of near-maximal inhibition of lipid probe binding to NUCB1,"[2]; Neuro2a cells, AEA-DA 5 μM",~25 µM
same,"SILAC ratio, Nucb1",[2]; competitor 10 μM,3.1
same,"SILAC ratio, Nucb1",[2]; competitor 25 μM,4.7
same,"SILAC ratio, Nucb1",[2]; competitor 50 μM,5.6
same,"SILAC ratio, Nucb1",[2]; competitor 100 μM,6.2
same,"SILAC ratio, Vgf",[3]; competitor 10 μM,1.3
same,"SILAC ratio, Vgf",[3]; competitor 25 μM,1.3
same,"SILAC ratio, Vgf",[3]; competitor 50 μM,1.1
same,"SILAC ratio, Vgf",[3]; competitor 100 μM,1.0
same,SILAC ratio Zmpste24,[4]; competitor 10 μM,1.1
same,SILAC ratio Zmpste24,[4]; competitor 25 μM,1.2
same,SILAC ratio Zmpste24,[4]; competitor 50 μM,1.3
same,SILAC ratio Zmpste24,[4]; competitor 100 μM,1.9
"C=CCN(C)CCCCCCOc1ccc(C(=O)c2ccc(Br)cc2)c(F)c1 [Ro 48-8071, reference compound]","SILAC ratio, Rtn4",[1]; competitor 25 μM,1.0
same,"SILAC ratio, Nucb1",[2]; competitor 25 μM,0.9
same,"SILAC ratio, Vgf",[3]; competitor 25 μM,0.9
same,SILAC ratio Zmpste24,[4]; competitor 25 μM,1.0
